# Assay results taken from ChEMBL document CHEMBL1201862, “PubChem BioAssay data set” (2004).
# The source made the active and inactive calls.
# Assays:
# Paired box protein Pax-8 = Paired box protein Pax-8 (Homo sapiens, UniProt Q06710); experiment: inhibitors of PAX8-driven TPO luciferase reporter, dose response, RMG-I cells, cherry-pick (AID 687027); type: functional, cell-based;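 also: luciferase reporter driven by Pax8 target thyroperoxidase promoter measured by SteadyGlo luminescence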
# [1] = HEK293 cell cytotoxicity, dose response, cytotoxicity control, plate reader, cherry-picked samples (AID 743446); type: functional, cell-based
# [2] = IGROV1 ovarian cancer cell cytotoxicity, dose response, PAX8 inhibitor project, plate reader, dry powder samples (AID 743043); type: functional, cell-based; settings: IGROV-1
# [3] = A549 cell cytotoxicity, dose response, cytotoxicity control, plate reader, cherry-pick, antagonist series (AID 743412); type: functional, cell-based
# [4] = NIH:OVCAR-3 ovarian cancer cell cytotoxicity, dose response, PAX8 inhibitor project, plate reader, dry powder samples (AID 743044); type: functional, cell-based
# [5] = HepG2 cell cytotoxicity, dose response, cytotoxicity control, plate reader, cherry-pick, antagonist series (AID 743416); type: functional, cell-based
# [6] = LGR2 antagonists, dose response, cell-based, HEK293, CRE-luciferase reporter, cherry pick, set 2 (AID 743343); type: functional;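 also: transfected cells were stimulated with diluted bursicon conditioned medium after compound addition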
# [7] = cytotoxicity in OVCAR8 ovarian cancer cells, dose response, PAX8 project, cell-based, plate reader, dry powder samples (AID 743197); type: functional; settings: OVCAR-8
# [8] = MC4R antagonists, dose response, counter-screen for LGR2 antagonist project, cell-based, plate reader, cherry pick (AID 743444); type: functional;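 also: transfected HEK 293 cells stimulated with alpha-MSH peptide; potency of inhibitors of the alpha-MSH evoked signal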
# Cryptococcus neoformans [9] = experiment: Cryptococcus growth inhibition by alamar blue – cell lysis, cherry-picks, replicate tests, mechanism study for C. neoformans antifungal project, dose response (AID 686999); type: functional, organism-based
# Cryptococcus neoformans [10] = experiment: PubChem AID 686997; type: functional, organism-based; settings: Cryptococcus neoformans
# A549 = experiment: A549 cell toxicity, dose response, cytotoxicity control, plate reader, cherry-pick samples (AID 687028); type: functional, cell-based; settings: Homo sapiens
# Vero = experiment: Vero cell toxicity, dose response, cytotoxicity control, plate reader, cherry-pick samples (AID 687020); type: functional, cell-based; settings: Chlorocebus sabaeus
# [11] = THP-1 cell cytotoxicity, dose response, cytotoxicity control for non-replicating M. tuberculosis project (AID 489025); type: functional
# [12] = inhibitors of intracellular T. cruzi replication, confirmation, NIH3T3 host cells, beta-gal luminescence (AID 2044); type: functional, cell-based;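 also: intracellular parasites grown in NIH/3T3 mouse fibroblasts as host cells; luminescent beta-galactosidase reporter signal from transgenic T. cruzi replicating inside host cells; inhibitors lower the luminescence signal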
# [13] = HepG2 cell cytotoxicity, dose response, cytotoxicity control for non-replicating M. tuberculosis project (AID 489018); type: functional; settings: Mycobacterium tuberculosis
# [14] = cytotoxicity toward NIH3T3 fibroblasts, dose response, counter-screen, cell-based, ATP luminescence, mouse fibroblasts (AID 2010); type: functional;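 also: cells exposed to compound for about 90 hours before reading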
# cells [15] = type: functional, cell-based
# Albumin = Albumin (Bos taurus, UniProt P02769); experiment: Counterscreen for inhibitors of T-cell receptor (TCR)-CD3 interaction: Fluorescence-based biochemical high throughput dose response assay to identify inhibitors of T-cell receptor (TCR)-CD3 interaction using a TAMRA-labeled BSA probe.; type: functional
# Chain of Albumin (P02769 whole entry): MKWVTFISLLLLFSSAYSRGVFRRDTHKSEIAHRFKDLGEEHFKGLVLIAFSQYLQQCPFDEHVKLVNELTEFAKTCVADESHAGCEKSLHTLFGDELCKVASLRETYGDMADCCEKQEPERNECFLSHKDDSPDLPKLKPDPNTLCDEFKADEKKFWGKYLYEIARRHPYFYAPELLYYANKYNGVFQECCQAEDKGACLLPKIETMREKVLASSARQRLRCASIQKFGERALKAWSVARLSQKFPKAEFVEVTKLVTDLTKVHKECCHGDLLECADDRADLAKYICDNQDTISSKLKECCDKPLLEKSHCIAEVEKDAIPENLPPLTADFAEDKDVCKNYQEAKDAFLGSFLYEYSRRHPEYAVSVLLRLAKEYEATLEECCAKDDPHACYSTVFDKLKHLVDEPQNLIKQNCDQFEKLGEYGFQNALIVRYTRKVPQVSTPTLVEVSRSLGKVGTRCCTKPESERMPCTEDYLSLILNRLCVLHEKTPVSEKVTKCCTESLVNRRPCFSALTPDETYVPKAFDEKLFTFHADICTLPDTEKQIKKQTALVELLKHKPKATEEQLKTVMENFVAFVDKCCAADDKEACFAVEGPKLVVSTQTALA
# [16] = Vero E6 cell cytotoxicity, dose response, cytotoxicity control for non-replicating M. tuberculosis project, secondary assay (AID 492998); type: functional, VeroE6; settings: Vero C1008
# cells [17] = type: functional, cell-based; remark: listed apart in the source
# [18] = HEK293T cell cytotoxicity, dose response, cytotoxicity control, CellTiter-Glo luminescence, cherry-picked samples, set 4 (AID 743441); type: functional, cell-based; settings: HEK293
# [19] = Luminescence Cell-Based Dose Retest to Confirm Inhibitors of Cancer Stem Cells. [Related pubchem assays (depositor defined):AID2717, AID2721]; type: functional; settings: Homo sapiens
# H9c2 = experiment: cells; type: functional, cell-based; settings: Rattus norvegicus, H9c2, Myocardium;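 also: confirmatory concentration-response retest of ultra-high-throughput screening hits for modulation of myocardial damage; cell death induced by hydrogen peroxide oxidative stress; compound pretreatment for 60 min then peroxide exposure for 2 h; potency is for protecting the cells against peroxide damage rather than for killing them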
# [20] = HEK293 cell viability, dose response, counter-screen for EBV LMP1 inhibitor project, dry powder, set 2 (AID 624374); type: functional
# [21] = LMP1-driven NF-kB reporter inhibition, dose response, cell-based, luciferase reporter, luminescence, dry powder, set 2 (AID 624376); type: functional
# [22] = molecular target: Fructose-bisphosphate aldolase (Mycobacterium tuberculosis, UniProt P9WQA3); experiment: Fluorescence-based biochemical high throughput dose response assay for inhibitors of the fructose-bisphosphate aldolase (FBA) of M. tuberculosis.; type: functional
# Chain of Fructose-bisphosphate aldolase (P9WQA3 whole entry): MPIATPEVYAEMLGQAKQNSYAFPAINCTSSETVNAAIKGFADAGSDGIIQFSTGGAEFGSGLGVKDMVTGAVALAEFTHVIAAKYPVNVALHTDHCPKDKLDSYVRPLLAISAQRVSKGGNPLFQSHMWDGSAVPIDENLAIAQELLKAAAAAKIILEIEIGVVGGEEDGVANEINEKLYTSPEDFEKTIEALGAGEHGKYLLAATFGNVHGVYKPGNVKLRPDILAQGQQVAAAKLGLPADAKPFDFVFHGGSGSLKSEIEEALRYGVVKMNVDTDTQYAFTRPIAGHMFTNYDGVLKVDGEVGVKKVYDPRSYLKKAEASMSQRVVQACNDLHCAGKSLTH
# [23] = molecular target: T1, Replicative DNA helicase DnaB (Mycobacterium tuberculosis, UniProt P9WMR3); experiment: DnaB intein splicing inhibitors, dose response, biochemical, cell-free fluorescence (AID 449749); type: functional
# T1 sequence (P9WMR3 whole entry): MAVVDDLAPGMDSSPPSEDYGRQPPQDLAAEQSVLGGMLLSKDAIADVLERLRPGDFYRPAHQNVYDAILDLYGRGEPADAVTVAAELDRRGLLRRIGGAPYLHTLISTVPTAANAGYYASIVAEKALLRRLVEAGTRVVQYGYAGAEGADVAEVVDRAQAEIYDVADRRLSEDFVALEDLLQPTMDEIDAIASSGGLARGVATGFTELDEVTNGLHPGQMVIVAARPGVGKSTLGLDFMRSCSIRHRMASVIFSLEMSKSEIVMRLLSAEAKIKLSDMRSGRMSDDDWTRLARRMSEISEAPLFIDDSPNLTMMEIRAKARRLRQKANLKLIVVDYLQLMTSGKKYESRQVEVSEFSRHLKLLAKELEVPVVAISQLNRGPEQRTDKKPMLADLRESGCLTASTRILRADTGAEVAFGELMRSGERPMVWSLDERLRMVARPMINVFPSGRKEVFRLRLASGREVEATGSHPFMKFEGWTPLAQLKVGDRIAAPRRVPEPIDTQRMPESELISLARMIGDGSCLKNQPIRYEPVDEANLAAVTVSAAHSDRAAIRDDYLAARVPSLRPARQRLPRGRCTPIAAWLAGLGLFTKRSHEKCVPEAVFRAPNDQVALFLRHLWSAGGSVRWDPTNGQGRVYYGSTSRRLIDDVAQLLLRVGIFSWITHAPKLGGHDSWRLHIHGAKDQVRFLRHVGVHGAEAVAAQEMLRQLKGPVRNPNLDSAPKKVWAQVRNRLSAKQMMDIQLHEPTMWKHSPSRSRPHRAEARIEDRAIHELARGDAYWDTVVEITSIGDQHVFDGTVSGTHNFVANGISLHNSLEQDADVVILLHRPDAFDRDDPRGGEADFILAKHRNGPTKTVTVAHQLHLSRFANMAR
# [24] = molecular target: T2, Sentrin-specific protease 8 (Homo sapiens, UniProt Q96LD8); type: functional
# T2 sequence (Q96LD8 whole entry): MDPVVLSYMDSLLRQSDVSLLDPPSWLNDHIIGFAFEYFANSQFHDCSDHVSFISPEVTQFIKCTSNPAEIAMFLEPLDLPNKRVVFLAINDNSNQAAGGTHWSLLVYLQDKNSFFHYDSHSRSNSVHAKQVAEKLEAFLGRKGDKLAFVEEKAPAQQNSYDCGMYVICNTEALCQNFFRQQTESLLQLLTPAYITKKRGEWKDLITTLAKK
# Caspase-3 = molecular target: T3, Caspase-3 (Homo sapiens, UniProt P42574); experiment: Dose-response confirmation of uHTS inhibitor hits of Sentrin-Specific Protease 8 in a Caspase-3 Fluorescence assay.; type: functional
# T3 sequence (P42574 whole entry): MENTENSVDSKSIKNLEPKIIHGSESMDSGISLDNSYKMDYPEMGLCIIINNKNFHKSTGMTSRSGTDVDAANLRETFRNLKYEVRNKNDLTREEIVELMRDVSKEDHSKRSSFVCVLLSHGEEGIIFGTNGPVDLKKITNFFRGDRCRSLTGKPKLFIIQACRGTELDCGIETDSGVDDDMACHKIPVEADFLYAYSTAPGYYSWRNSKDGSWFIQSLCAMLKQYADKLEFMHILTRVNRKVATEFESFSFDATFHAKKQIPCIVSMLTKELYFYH
# Genome polyprotein = Genome polyprotein (dengue virus type 2, UniProt P29990); experiment: Dengue-2 NS5 methyltransferase inhibitors, primary screen, biochemical, confirmation dose response (AID 588689); type: functional
# Chain of Genome polyprotein (P29990 2492-3391 limits assumed): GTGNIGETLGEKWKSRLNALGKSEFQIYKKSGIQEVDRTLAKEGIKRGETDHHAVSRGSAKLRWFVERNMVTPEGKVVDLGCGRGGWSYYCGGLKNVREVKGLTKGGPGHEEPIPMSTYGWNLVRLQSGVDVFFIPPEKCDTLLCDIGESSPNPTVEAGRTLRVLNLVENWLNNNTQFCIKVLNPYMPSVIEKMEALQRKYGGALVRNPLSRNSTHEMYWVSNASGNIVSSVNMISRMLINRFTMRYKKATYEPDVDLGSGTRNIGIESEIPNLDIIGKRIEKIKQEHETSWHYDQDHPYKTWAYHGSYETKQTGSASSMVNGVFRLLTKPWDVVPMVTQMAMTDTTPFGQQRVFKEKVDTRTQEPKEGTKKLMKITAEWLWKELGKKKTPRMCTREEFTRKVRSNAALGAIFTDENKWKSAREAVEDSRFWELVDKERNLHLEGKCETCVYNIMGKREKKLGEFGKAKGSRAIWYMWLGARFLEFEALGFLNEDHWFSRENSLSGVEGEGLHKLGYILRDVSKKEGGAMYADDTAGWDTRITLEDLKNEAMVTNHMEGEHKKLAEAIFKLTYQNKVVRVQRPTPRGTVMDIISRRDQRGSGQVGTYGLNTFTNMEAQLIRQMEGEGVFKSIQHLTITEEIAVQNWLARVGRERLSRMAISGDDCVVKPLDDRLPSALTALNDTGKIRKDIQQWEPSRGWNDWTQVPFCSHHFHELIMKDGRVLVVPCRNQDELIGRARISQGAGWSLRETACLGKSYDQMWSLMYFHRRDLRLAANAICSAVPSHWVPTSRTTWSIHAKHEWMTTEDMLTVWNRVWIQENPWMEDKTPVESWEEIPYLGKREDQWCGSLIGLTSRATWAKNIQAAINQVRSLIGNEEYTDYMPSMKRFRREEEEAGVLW
# [25] = molecular target: Induced myeloid leukemia cell differentiation protein Mcl-1 (Homo sapiens, UniProt Q07820); type: functional
# Chain of Induced myeloid leukemia cell differentiation protein Mcl-1 (Q07820 whole entry): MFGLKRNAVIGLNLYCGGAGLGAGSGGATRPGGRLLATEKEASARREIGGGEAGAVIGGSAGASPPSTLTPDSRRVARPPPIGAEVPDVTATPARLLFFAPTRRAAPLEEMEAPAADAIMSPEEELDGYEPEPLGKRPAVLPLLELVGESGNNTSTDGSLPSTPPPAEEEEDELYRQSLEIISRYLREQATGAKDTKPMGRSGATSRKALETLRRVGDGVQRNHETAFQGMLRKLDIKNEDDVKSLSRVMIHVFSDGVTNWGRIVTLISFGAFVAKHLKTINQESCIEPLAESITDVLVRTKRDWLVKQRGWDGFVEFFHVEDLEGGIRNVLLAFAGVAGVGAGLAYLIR
# [26] = molecular target: T2, Sentrin-specific protease 8; type: functional; remark: listed apart in the source
# [27] = molecular target: T4, Mannose-6-phosphate isomerase (Homo sapiens, UniProt P34949); experiment: human PMI inhibitors, high substrate, primary screen, biochemical, fluorescence intensity, high mannose 6-phosphate (AID 1220)
# T4 sequence (P34949 whole entry): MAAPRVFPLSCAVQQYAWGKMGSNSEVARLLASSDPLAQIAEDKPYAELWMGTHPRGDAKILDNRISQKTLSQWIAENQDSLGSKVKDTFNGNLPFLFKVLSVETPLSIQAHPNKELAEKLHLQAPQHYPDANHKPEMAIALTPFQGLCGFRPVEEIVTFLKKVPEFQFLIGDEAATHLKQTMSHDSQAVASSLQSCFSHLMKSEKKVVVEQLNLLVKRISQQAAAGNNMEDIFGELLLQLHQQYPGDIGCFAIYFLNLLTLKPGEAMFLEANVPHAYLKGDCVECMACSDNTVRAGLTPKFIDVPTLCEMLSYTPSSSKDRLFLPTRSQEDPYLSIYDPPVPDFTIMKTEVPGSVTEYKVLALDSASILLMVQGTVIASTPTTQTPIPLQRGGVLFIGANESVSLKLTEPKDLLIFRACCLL
# Protein RecA = molecular target: T5, Protein RecA (Mycobacterium tuberculosis, UniProt P9WHJ3); experiment: Fluorescence Cell-Free Homogeneous Dose Retest to Identify Inhibitors of RecA-Intein Splicing Activity. [Related pubchem assays (depositor defined):AID2097, AID2223, AID489010, AID492950]; type: functional
# T5 sequence (P9WHJ3 whole entry): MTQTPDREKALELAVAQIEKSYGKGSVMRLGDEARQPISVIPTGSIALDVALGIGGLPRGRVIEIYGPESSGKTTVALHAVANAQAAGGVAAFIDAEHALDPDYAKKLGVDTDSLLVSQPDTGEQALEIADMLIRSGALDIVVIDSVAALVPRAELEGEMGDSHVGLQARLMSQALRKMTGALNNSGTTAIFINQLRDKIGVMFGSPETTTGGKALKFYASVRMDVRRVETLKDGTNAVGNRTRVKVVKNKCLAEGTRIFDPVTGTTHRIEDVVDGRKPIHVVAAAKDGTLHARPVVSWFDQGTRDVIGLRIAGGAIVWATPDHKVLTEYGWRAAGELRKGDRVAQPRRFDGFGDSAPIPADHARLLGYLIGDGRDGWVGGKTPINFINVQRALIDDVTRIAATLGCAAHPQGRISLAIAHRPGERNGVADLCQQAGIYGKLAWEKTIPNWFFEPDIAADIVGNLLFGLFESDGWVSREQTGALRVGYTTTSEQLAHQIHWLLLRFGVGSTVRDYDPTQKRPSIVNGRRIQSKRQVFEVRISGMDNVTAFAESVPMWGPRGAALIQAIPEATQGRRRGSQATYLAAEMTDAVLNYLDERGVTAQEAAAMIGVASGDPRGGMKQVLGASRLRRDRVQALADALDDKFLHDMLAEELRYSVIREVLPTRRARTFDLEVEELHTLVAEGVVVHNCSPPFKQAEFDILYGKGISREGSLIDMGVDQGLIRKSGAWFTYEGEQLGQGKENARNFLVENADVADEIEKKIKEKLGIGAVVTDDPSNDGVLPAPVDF
# [28] = Vibrio cholerae quorum sensing activators (AID 686977); type: functional
# [29] = HEK293T cytotoxicity, dose response, cytotoxicity control for miR-122 modulator project, cell-based, inhibitor set, cherry-pick, set 2 (AID 720697); type: functional
# Chain of Paired box protein Pax-8 (Q06710 whole entry): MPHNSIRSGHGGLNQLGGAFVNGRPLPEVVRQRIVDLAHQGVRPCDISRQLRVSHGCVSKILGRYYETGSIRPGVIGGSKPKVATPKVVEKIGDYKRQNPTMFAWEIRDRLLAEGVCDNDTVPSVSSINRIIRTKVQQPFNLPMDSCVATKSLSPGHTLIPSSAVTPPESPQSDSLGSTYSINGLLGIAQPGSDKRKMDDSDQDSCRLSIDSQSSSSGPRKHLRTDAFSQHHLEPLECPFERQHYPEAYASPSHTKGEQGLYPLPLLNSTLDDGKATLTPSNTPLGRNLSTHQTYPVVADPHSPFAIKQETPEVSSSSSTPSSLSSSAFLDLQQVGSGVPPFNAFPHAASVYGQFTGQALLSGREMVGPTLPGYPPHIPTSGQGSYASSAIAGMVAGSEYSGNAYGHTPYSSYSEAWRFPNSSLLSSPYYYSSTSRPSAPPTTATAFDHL
structure (smiles),measurement,setting,value
COc1cccc(-c2ccc3c(c2)[C@H]2[C@H](CCN2C(=O)c2ccccc2F)[C@H](CO)N3C)c1,AC50,Paired box protein Pax-8,8.72 µM (active)
same,AC50,[1],20.5 µM (active)
same,AC50,[2],57.8 µM (active)
same,AC50,[3],13.8 µM (active)
same,AC50,[4],22.7 µM (active)
same,AC50,[5],24 µM (active)
same,AC50,[6],5.53 µM (active)
same,AC50,[7],25.3 µM (active)
same,AC50,[8],7.07 µM (active)
COC(=O)C1=C(C)N(Cc2ccc(Cl)cc2)C(=S)NC1c1ccccc1 (configuration not stated),AC50,Cryptococcus neoformans [9],36.1 µM (active)
same,AC50,Cryptococcus neoformans [10],25.9 µM (active)
COc1ccc(S(=O)(=O)N(CC(C)C)CC(C)C)c2cccnc12,AC50,A549,19.5 µM (active)
same,AC50,Vero,39 µM (active)
O=C(N/N=C/c1cc(Br)cc(Br)c1O)c1cccc(N2CCCC2=O)c1,CC50,[11],15.2 µM (active)
same,EC50,[12],1.55 µM (active)
same,CC50,[13],> 20 µM (active)
same,EC50,[14],> 60 µM (not active)
same,EC50,cells [15],138 µM (active)
same,IC50,Albumin,> 94.1 µM (inactive)
same,CC50,[16],15 µM (active)
same,EC50,cells [17],> 350 µM (not active)
COc1ccc(-n2cc(-c3ccccc3)c3c(N4CCOCC4)ncnc32)cc1,AC50,[18],48.5 µM (active)
same,AC50,[19],3.78 µM (active)
same,IC50,H9c2,> 79 µM (inactive)
COc1cccc(-c2cccc(-c3nc(C(=O)NCC(F)(F)F)cc4c3[C@H](CCO)N([S@@+]([O-])C(C)(C)C)C4)c2)c1,AbsAC35,[20],43.43 µM
same,AbsAC35,[21],56.19 µM
CC1=CC2=NCC(O)CN2C=C1 (configuration not stated),IC50,[22],5.11 µM (active)
Nc1scc2c(C(=O)N/N=C/c3ccc(Cl)cc3)nn(-c3ccccc3)c(=O)c12,AC50,[23],7.02 µM (active)
same,IC50,[24],0.5 µM (active)
same,IC50,Caspase-3,4.47 µM (active)
same,IC50,Genome polyprotein,70.6 µM (active)
same,IC50,[25],1.95 µM (active)
same,IC50,[26],0.577 µM (active)
same,IC50,[27],> 50 µM (not active)
same,EC50,Protein RecA,5.71 µM (active)
O=C(Nc1ccc(F)cc1F)c1sccc1SCc1cccc(C(F)(F)F)c1,IC50,[28],77.9 µM (active)
O=C1NC(=O)N(CCC2=CCCCC2)C(=O)/C1=C\c1cccs1,AC50,[29],1.06 µM (active)
